According to PMC7136958, “Targeting the pregnane X receptor using microbial metabolite mimicry” (EMBO Molecular Medicine, 2020):

Columns and labels:
NF-κB [1] = assay: TNF-α-induced NF-κB reporter assay in LS180 cells with or without PXR co-transfection; type: cell-based, human; conditions: for TNF-α-induced NF-κB reporter activity: 0.1 to 25 μM, PXR-untransfected and PXR-transfected cells
Protocol: NF‐κB reporter assays were performed using LS180 cells. […] Thereafter, cells were lysed, and Nano luciferase activity was measured using a Tecan Infinite M200 Pro plate reader (Schoeller Instruments, Czech Republic).

NF-κB [2] = assay: NF-κB nuclear translocation (immunofluorescence) in Caco-2 cells; type: cell-based, human; conditions: 25 μM, with cytokines, 2 or 12 h
Protocol: HIOs and Caco‐2 were exposed to a pro‐inflammatory cytokine cocktail (10 ng/ml IFN‐γ, 10 ng/ml TNF‐α, 50 ng/ml IL‐1β) for 2–24 h in combination with DMSO or FKK5 and FKK6 compounds (10 and 25 μm). Relative mRNA levels of IL‐8 and IL‐6 were determined using quantitative real‐time PCR, with normalization to GAPDH. RNA was isolated using an RNeasy Mini Kit (Qiagen) as per the manufacturer's instructions. On column DNase (Qiagen) was used to remove any contaminating DNA. Next, cDNA was formed using iScript cDNA Synthesis Kit (Bio‐Rad) and 100 ng RNA. qRT–PCR was performed with SsoAdvanced Universal SYBR Green Kit (Bio‐Rad). The following primers were used: IL‐8 Forward: […]; IL‐8 Reverse: […]; IL‐6 Forward: […]; IL‐6 Reverse: […]; GAPDH Forward: […]; GAPDH Reverse: […]. For immunofluorescent staining of NF‐ĸB translocation to the cell nucleus, HIOs and Caco‐2 cell monolayers were fixed in 4% formaldehyde (in 1 × PBS) overnight at 4°C. The formaldehyde was removed by washing with 1 × PBS, and an antigen retrieval step was performed by incubating in 10 mM sodium citrate buffer in a vegetable steamer for 20 min. The samples were then blocked with normal donkey serum (10% in PBS with 0.3% Triton X‐100) for 1 h. […]

[3] = tested on: ABCC2, UGT1A1, ABCB1, CYP3A4, GSTA1 mRNA; assay: PXR target gene mRNA in human duodenal enteroids; conditions: for ABCB1 (MDR1) mRNA fold change, Mean / ABCC2 mRNA fold change, Mean / CYP3A4 mRNA fold change, Mean / GSTA1 mRNA fold change, Mean / UGT1A1 mRNA fold change, Mean: 10 μM, 24 h, n=3
Protocol: Discarded duodenum tissue after surgery was obtained and used to isolate crypts. Embedded crypts in Matrigel formed 3D structures referred to as “enteroids”. […] DMSO was added to enteroids as a negative control. After incubation for 24 h, enteroids were collected in RNA‐free tube followed by breaking down Matrigel by pipetting vigorously (using 1 ml PBS). The enteroids were pelleted at 16,000 g for 3 min (4°C). RNA was extracted using miRNA isolation kit (Invitrogen; #AM1561) using the protocol provided by Invitrogen. […] PowerUp SYBR Green (Applied Biosystem, #A25742) was used for RT–PCR and performed 40 cycles using Quant Studio3 (Invitrogen, #A28132).

PXR = target: T1, PXR (Homo sapiens, UniProt O75469); assay: Ligand efficiency metric (LEM) analysis; parameters: expressed in transfected cells; host or cells: LS180; conditions: NSEI-nBEI plane, from PXR reporter Emax
T1 sequence (O75469 1-434): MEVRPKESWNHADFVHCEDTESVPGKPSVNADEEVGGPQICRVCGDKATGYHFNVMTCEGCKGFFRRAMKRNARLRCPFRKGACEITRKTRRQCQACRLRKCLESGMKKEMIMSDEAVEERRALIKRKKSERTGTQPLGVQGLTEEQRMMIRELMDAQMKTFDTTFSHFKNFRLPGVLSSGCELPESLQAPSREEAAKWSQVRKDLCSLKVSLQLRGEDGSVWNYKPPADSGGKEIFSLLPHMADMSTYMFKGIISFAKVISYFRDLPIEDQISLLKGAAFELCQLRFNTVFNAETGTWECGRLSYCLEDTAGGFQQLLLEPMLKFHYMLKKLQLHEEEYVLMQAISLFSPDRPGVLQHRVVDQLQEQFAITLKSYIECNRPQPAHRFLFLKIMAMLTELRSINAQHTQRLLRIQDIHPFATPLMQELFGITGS
From the text: Ligand efficiency metric (LEM) analysis for FKK ligand efficiency. The ligand efficiency metrics (LEMs) of compounds FKK1 to 10 and FKK999 as a reference compound, have been analyzed by using a web tool named AtlasCBS which represents LEMs as variables for a Cartesian mapping of chemico-biological space (CBS). In particular, Cartesian planes combine three critical variables in drug discovery (affinity, size, and polarity) into easily interpretable ‘efficiency planes’ useful to guide a drug discovery process. In the Cartesian plane, each target:ligand pair appears as a point whose coordinates are given by pairs of values derived from the affinity of the ligand toward the target (Ki or equivalent) in relation to its size (MW or number of non-hydrogen atoms NHA), and its polarity (expressed as Polar Surface Area, PSA, or number of polar atoms, NPOL = count of N + O). The first one represents a size-related LEM and the second a polarity-related LEM. Consistently, compounds that correspond to marketed drugs typically occupy the upper right quadrant of the plots (‘Nort h-East’ direction, NE), where both the efficiency -pe r-size and efficiency -per-polarity are optimized 1,2.
Our results are represented in the efficiency plane NS EI-nBEI where:
NSEI = –log Ki/NPOL (N, O) = pKi/NPOL (N, O)
As a measure of activity of the above compounds, the reciprocal of the percentage efficacy values (1/Efficacy [%]) obtained in the PXR-dependent luciferase activity test (Emax values from Fig. 1) were used in lieu of the affinity constants (Ki in the above equations). FKK4 would appear as the most efficient compound since it is placed in the NE panel (GL, unpublished observations). However, this congener might suffer from metabolic liability with its N-protecting group possibly generating toxic aldehydes by oxidative cleavage in vivo. Unambiguously, the two most efficient compounds besides FKK4 are FKK5 and FKK6 which were therefore considered suitable lead compounds, as al so

[4] = NFkB transfected LS180 cells, 8th pass, EXP1, 0,1 uM + TNFa 5 ng/ml
[5] = NFkB transfected LS180 cells, 8th pass, EXP1, 1 uM + TNFa 5 ng/ml
[6] = NFkB transfected LS180 cells, 8th pass, EXP1, 10 uM + TNFa 5 ng/ml
[7] = NFkB transfected LS180 cells, 8th pass, EXP1, 25 uM + TNFa 5 ng/ml
[8] = NFkB transfected LS180 cells, 13th pass, EXP2, 0,1 uM + TNFa 5 ng/ml
[9] = NFkB transfected LS180 cells, 13th pass, EXP2, 1 uM + TNFa 5 ng/ml
[10] = NFkB transfected LS180 cells, 13th pass, EXP2, 10 uM + TNFa 5 ng/ml
[11] = NFkB transfected LS180 cells, 13th pass, EXP2, 25 uM + TNFa 5 ng/ml
[12] = NFkB+PXR transfected LS180 cells, 8th pass, EXP1, 0,1 uM + TNFa 5 ng/ml
[13] = NFkB+PXR transfected LS180 cells, 8th pass, EXP1, 1 uM + TNFa 5 ng/ml
[14] = NFkB+PXR transfected LS180 cells, 8th pass, EXP1, 10 uM + TNFa 5 ng/ml
[15] = NFkB+PXR transfected LS180 cells, 8th pass, EXP1, 25 uM + TNFa 5 ng/ml
[16] = NFkB+PXR transfected LS180 cells, 13th pass, EXP2, 0,1 uM + TNFa 5 ng/ml
[17] = NFkB+PXR transfected LS180 cells, 13th pass, EXP2, 1 uM + TNFa 5 ng/ml
[18] = NFkB+PXR transfected LS180 cells, 13th pass, EXP2, 10 uM + TNFa 5 ng/ml
[19] = NFkB+PXR transfected LS180 cells, 13th pass, EXP2, 25 uM + TNFa 5 ng/ml

For `C#CCC(O)(c1ccncc1)c1cc2ccccc2n1S(=O)(=O)c1ccccc1` (stereo not shown) [FKK6], the “TNF-α-induced NF-κB reporter activity” value (NF-κB [1]) was “significantly reduced”, the “NFkB reporter luminescence, aver” value (NF-κB [1]; [4]) was 151491.7 and the “NFkB reporter, % max” value (NF-κB [1]; [4]) was 100.0%. For the same compound, the “NFkB reporter luminescence, aver” value (NF-κB [1]; [5]) was 188054.3, the “NFkB reporter, % max” value (NF-κB [1]; [5]) was 124.1% and the “NFkB reporter luminescence, aver” value (NF-κB [1]; [6]) was 206680.7. The “NFkB reporter, % max” value (NF-κB [1]; [6]) was 136.4%, the “NFkB reporter luminescence, aver” value (NF-κB [1]; [7]) was 153657.3 and the “NFkB reporter, % max” value (NF-κB [1]; [7]) was 101.4%. The “NFkB reporter luminescence, aver” value (NF-κB [1]; [8]) was 110498.5, the “NFkB reporter, % max” value (NF-κB [1]; [8]) was 100.0% and the “NFkB reporter luminescence, aver” value (NF-κB [1]; [9]) was 114693.5. For the same compound, the “NFkB reporter, % max” value (NF-κB [1]; [9]) was 103.8%, the “NFkB reporter luminescence, aver” value (NF-κB [1]; [10]) was 113662.5 and the “NFkB reporter, % max” value (NF-κB [1]; [10]) was 102.9%. For the same compound, the “NFkB reporter luminescence, aver” value (NF-κB [1]; [11]) was 88975.5, the “NFkB reporter, % max” value (NF-κB [1]; [11]) was 80.5% and the “NFkB reporter luminescence, aver” value (NF-κB [1]; [12]) was 128584.0. For the same compound, the “NFkB reporter, % max” value (NF-κB [1]; [12]) was 100.0%, the “NFkB reporter luminescence, aver” value (NF-κB [1]; [13]) was 112418.0 and the “NFkB reporter, % max” value (NF-κB [1]; [13]) was 87.4%. The “NFkB reporter luminescence, aver” value (NF-κB [1]; [14]) was 100484.8, the “NFkB reporter, % max” value (NF-κB [1]; [14]) was 78.1% and the “NFkB reporter luminescence, aver” value (NF-κB [1]; [15]) was 94342.8. For the same compound, the “NFkB reporter, % max” value (NF-κB [1]; [15]) was 73.4%, the “NFkB reporter luminescence, aver” value (NF-κB [1]; [16]) was 50028.3 and the “NFkB reporter, % max” value (NF-κB [1]; [16]) was 100.0%. The “NFkB reporter luminescence, aver” value (NF-κB [1]; [17]) was 38521.5, the “NFkB reporter, % max” value (NF-κB [1]; [17]) was 77.0% and the “NFkB reporter luminescence, aver” value (NF-κB [1]; [18]) was 24979.3. The “NFkB reporter, % max” value (NF-κB [1]; [18]) was 49.9%, the “NFkB reporter luminescence, aver” value (NF-κB [1]; [19]) was 26644.5 and the “NFkB reporter, % max” value (NF-κB [1]; [19]) was 53.3%. For the same compound, the NF-κB localisation (NF-κB [2]) was “increased cytoplasmic”, the “PXR target gene induction (in words)” value [3] was “significantly induced” and the “ABCB1 (MDR1) mRNA fold change, Mean” value [3] was 3.883 fold. The “ABCC2 mRNA fold change, Mean” value [3] was 4.029 fold, the “CYP3A4 mRNA fold change, Mean” value [3] was 1.665 fold and the “GSTA1 mRNA fold change, Mean” value [3] was 1.768 fold. For the same compound, the “UGT1A1 mRNA fold change, Mean” value [3] was 2.472 fold and the LEM analysis prediction (PXR) was “best candidates for further studies”.
In the case of `O=C(c1ccncc1)c1cc2ccccc2n1S(=O)(=O)c1ccccc1` [FKK5, (1-(phenylsulfonyl)-1H-indol-2-yl)(pyridin-4-yl)methanone], the “TNF-α-induced NF-κB reporter activity” value (NF-κB [1]) is reported as “significantly reduced”, the “NFkB reporter luminescence, aver” value (NF-κB [1]; [4]) is reported as 154648.3 and the “NFkB reporter, % max” value (NF-κB [1]; [4]) is reported as 100.0%. For the same compound, the “NFkB reporter luminescence, aver” value (NF-κB [1]; [5]) was 174112.0, the “NFkB reporter, % max” value (NF-κB [1]; [5]) was 112.6% and the “NFkB reporter luminescence, aver” value (NF-κB [1]; [6]) was 177548.0. For the same compound, the “NFkB reporter, % max” value (NF-κB [1]; [6]) was 114.8%, the “NFkB reporter luminescence, aver” value (NF-κB [1]; [7]) was 128563.8 and the “NFkB reporter, % max” value (NF-κB [1]; [7]) was 83.1%. The “NFkB reporter luminescence, aver” value (NF-κB [1]; [8]) was 96416.5, the “NFkB reporter, % max” value (NF-κB [1]; [8]) was 100.0% and the “NFkB reporter luminescence, aver” value (NF-κB [1]; [9]) was 100061.8. For the same compound, the “NFkB reporter, % max” value (NF-κB [1]; [9]) was 103.8%, the “NFkB reporter luminescence, aver” value (NF-κB [1]; [10]) was 94755.5 and the “NFkB reporter, % max” value (NF-κB [1]; [10]) was 98.3%. For the same compound, the “NFkB reporter luminescence, aver” value (NF-κB [1]; [11]) was 73575.7, the “NFkB reporter, % max” value (NF-κB [1]; [11]) was 76.3% and the “NFkB reporter luminescence, aver” value (NF-κB [1]; [12]) was 119827.8. For the same compound, the “NFkB reporter, % max” value (NF-κB [1]; [12]) was 100.0%, the “NFkB reporter luminescence, aver” value (NF-κB [1]; [13]) was 119180.5 and the “NFkB reporter, % max” value (NF-κB [1]; [13]) was 99.5%. For the same compound, the “NFkB reporter luminescence, aver” value (NF-κB [1]; [14]) was 105570.7, the “NFkB reporter, % max” value (NF-κB [1]; [14]) was 88.1% and the “NFkB reporter luminescence, aver” value (NF-κB [1]; [15]) was 87454.8. For the same compound, the “NFkB reporter, % max” value (NF-κB [1]; [15]) was 73.0%, the “NFkB reporter luminescence, aver” value (NF-κB [1]; [16]) was 54048.0 and the “NFkB reporter, % max” value (NF-κB [1]; [16]) was 100.0%. The “NFkB reporter luminescence, aver” value (NF-κB [1]; [17]) was 44601.5, the “NFkB reporter, % max” value (NF-κB [1]; [17]) was 82.5% and the “NFkB reporter luminescence, aver” value (NF-κB [1]; [18]) was 31230.0. The “NFkB reporter, % max” value (NF-κB [1]; [18]) was 57.8%, the “NFkB reporter luminescence, aver” value (NF-κB [1]; [19]) was 30160.0 and the “NFkB reporter, % max” value (NF-κB [1]; [19]) was 55.8%. The NF-κB localisation (NF-κB [2]) was “increased cytoplasmic”, the “PXR target gene induction (in words)” value [3] was “significantly induced” and the “ABCB1 (MDR1) mRNA fold change, Mean” value [3] was 2.409 fold. The “ABCC2 mRNA fold change, Mean” value [3] was 4.345 fold, the “CYP3A4 mRNA fold change, Mean” value [3] was 2.034 fold and the “GSTA1 mRNA fold change, Mean” value [3] was 4.61 fold. The “UGT1A1 mRNA fold change, Mean” value [3] was 1.773 fold and the LEM analysis prediction (PXR) was “best candidates for further studies”.
